From patent US20260028326A1, “COMPOUND BASED ON ISOINDOLINE-SUBSTITUTED GLUTARIMIDE BACKBONE AND USE THEREOF” (GLUETACS THERAPEUTICS (SHANGHAI) CO., LTD., priority 2022, published 2026)

The compounds below were run against human Cereblon WT GST-tagged protein (Homo sapiens (Human), UniProt Q96SW2) (assay: CRBN-binding affinity, HTRF (CEREBLON BINDING kit)).
In short: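 HTRF competition readout: compounds compete with a thalidomide-Re conjugate for GST-tagged wild-type human CRBN detected via Eu-labelled anti-GST antibody. Inhibition rate derived relative to protein-free blank wells.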

Sequence of human Cereblon WT GST-tagged protein (Q96SW2 whole entry): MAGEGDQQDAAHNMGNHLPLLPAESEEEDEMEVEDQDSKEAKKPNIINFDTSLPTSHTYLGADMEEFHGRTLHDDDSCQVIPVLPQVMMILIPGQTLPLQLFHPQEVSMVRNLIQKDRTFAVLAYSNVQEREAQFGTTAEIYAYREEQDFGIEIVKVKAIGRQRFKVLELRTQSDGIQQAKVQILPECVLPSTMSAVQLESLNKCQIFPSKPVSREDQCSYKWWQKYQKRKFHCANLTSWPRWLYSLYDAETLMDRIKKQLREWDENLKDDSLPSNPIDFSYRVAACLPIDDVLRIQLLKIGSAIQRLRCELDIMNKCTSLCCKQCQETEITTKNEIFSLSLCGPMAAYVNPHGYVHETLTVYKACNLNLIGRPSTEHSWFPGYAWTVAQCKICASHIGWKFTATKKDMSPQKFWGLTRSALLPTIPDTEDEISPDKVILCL

| Compound | IC50 [nM] |
| --- | --- |
| O=C1CCC(N2Cc3cc(CN4CC5CCC4CN5C(=O)c4ccccc4-c4ccc(Cl)cc4)ccc3C2=O)C(=O)N1 (centres unmarked) [GT-05543, 3-(5-((5-(4′-chloro-[1,1′-biphenyl]-2-carbonyl)-2,5-diazabicyclo[2.2.2]octan-2-yl)methyl)-1-oxoisoindolin-2-yl)piperidine-2,6-dione] | 450 |
| CC1(C)CCC(CN2CCCN(C(=O)c3ccc4c(c3)CN(C3CCC(=O)NC3=O)C4=O)CC2)=C(c2ccc(F)cc2)C1 (centres unmarked) [GT-05505, 3-(5-(4-((4′-fluoro-5,5-dimethyl-3,4,5,6-tetrahydro-[1,1′-biphenyl]-2-yl)methyl)-1,4-diazepane-1-carbonyl)-1-oxoisoindolin-2-yl)piperidine-2,6-dione] | 810 |
| CC1(C)CCC(CN2C3CC2CN(Cc2cc4c(cc2F)C(=O)N(C2CCC(=O)NC2=O)C4)C3)=C(c2ccc(Cl)cc2)C1 (centres unmarked) [GT-05530, 3-(5-((6-((4′-chloro-5,5-dimethyl-3,4,5,6-tetrahydro-[1,1′-biphenyl]-2-yl)methyl)-3,6-diazabicyclo[3.1.1]heptan-3-yl)methyl)-6-fluoro-1-oxoisoindolin-2-yl)piperidine-2,6-dione] | 1200 |
| CC1(C)CCC(C(=O)N2CC3CCC(C2)N3Cc2ccc3c(c2)CN(C2CCC(=O)NC2=O)C3=O)=C(c2ccc(Cl)cc2)C1 (centres unmarked) [GT-05522, 3-(5-((3-(4′-chloro-5,5-dimethyl-3,4,5,6-tetrahydro-[1,1′-biphenyl]-2-carbonyl)-3,8-diazabicyclo[3.2.1]octan-8-yl)methyl)-1-oxoisoindolin-2-yl)piperidine-2,6-dione] | 480 |
| O=C1CCC(N2Cc3cc(CN4CC5CC4CN5C(=O)c4ccccc4-c4ccc(Cl)cc4)ccc3C2=O)C(=O)N1 (centres unmarked) [GT-05776, 3-(5-((5-(4′-chloro-[1,1′-biphenyl]-2-carbonyl)-2,5-diazabicyclo[2.2.1]heptan-2-yl)methyl)-1-oxoisoindolin-2-yl)piperidine-2,6-dione] | 420 |
| CC1(C)CCC(C(=O)N2CCN(Cc3ccc4c(c3)CN(C3CCC(=O)NC3=O)C4=O)CC2)=C(c2ccc(F)cc2)C1 (centres unmarked) [GT-05520, 3-(5-((4-(4′-fluoro-5,5-dimethyl-3,4,5,6-tetrahydro-[1,1′-biphenyl]-2-carbonyl)piperazin-1-yl)methyl)-1-oxoisoindolin-2-yl)piperidine-2,6-dione] | 350 |
| CC1(C)CCC(CN2C[C@@H]3C[C@H]2CN3C(=O)c2ccc3c(c2)CN(C2CCC(=O)NC2=O)C3=O)=C(c2ccc(Cl)cc2)C1 (stereo partly drawn) [GT-05442, 3-(5-((1S,4S)-5-((4′-chloro-5,5-dimethyl-3,4,5,6-tetrahydro-[1,1′-biphenyl]-2-yl)methyl)-2,5-diazabicyclo[2.2.1]heptane-2-carbonyl)-1-oxoisoindolin-2-yl)piperidine-2,6-dione] | 670 |
| CC1(C)CCC(C(=O)N2C3CCC2CN(C(=O)c2ccc4c(c2)CN(C2CCC(=O)NC2=O)C4=O)C3)=C(c2ccc(Cl)cc2)C1 (centres unmarked) [GT-05540, 3-(5-(8-(4′-chloro-5,5-dimethyl-3,4,5,6-tetrahydro-[1,1′-biphenyl]-2-carbonyl)-3,8-diazabicyclo[3.2.1]octane-3-carbonyl)-1-oxoisoindolin-2-yl)piperidine-2,6-dione] | 960 |
| O=C1CCC(N2Cc3cc(NC4CN(Cc5ccccc5-c5ccc(Cl)cc5)C4)c(F)cc3C2=O)C(=O)N1 (centres unmarked) [GT-04204, 3-(5-((1-((4′-chloro-[1,1′-biphenyl]-2-yl)methyl)azetidin-3-yl)amino)-6-fluoro-1-oxoisoindolin-2-yl)piperidine-2,6-dione] | 520 |
| CC1(C)CCC(CN2CCN(Cc3ccc4c(c3)C(=O)N(C3CCC(=O)NC3=O)C4)CC2)=C(c2ccc(F)cc2)C1 (centres unmarked) [GT-05394, 3-(6-((4-((4′-fluoro-5,5-dimethyl-3,4,5,6-tetrahydro-[1,1′-biphenyl]-2-yl)methyl)piperazin-1-yl)methyl)-1-oxoisoindolin-2-yl)piperidine-2,6-dione] | 490 |
| CC1(C)CCC(CN2C3CCC2CN(Cc2ccc4c(c2)CN(C2CCC(=O)NC2=O)C4=O)C3)=C(c2ccc(Cl)cc2)C1 (centres unmarked) [GT-03996, 3-(5-((8-((4′-chloro-5,5-dimethyl-3,4,5,6-tetrahydro-[1,1′-biphenyl]-2-yl)methyl)-3,8-diazabicyclo[3.2.1]octan-3-yl)methyl)-1-oxoisoindolin-2-yl)piperidine-2,6-dione] | 1440 |
| O=C1CCC(N2Cc3cc(CN4CCCN(Cc5ccccc5-c5ccc(Cl)cc5)CC4)ccc3C2=O)C(=O)N1 (centres unmarked) [GT-05611, 3-(5-((4-((4′-chloro-[1,1′-biphenyl]-2-yl)methyl)-1,4-diazepan-1-yl)methyl)-1-oxoisoindolin-2-yl)piperidine-2,6-dione] | 630 |
| O=C1CCC(N2Cc3cc(C(=O)N4CC5CC4CN5Cc4ccccc4-c4ccc(Cl)cc4)ccc3C2=O)C(=O)N1 (centres unmarked) [GT-05639, 3-(5-(5-((4′-chloro-[1,1′-biphenyl]-2-yl)methyl)-2,5-diazabicyclo[2.2.1]heptane-2-carbonyl)-1-oxoisoindolin-2-yl)piperidine-2,6-dione] | 780 |
| CC1(C)CCC(C(=O)N2CC3CN(Cc4ccc5c(c4)CN(C4CCC(=O)NC4=O)C5=O)CC3C2)=C(c2ccc(F)cc2)C1 (centres unmarked) [GT-05405, 3-(5-((5-(4′-fluoro-5,5-dimethyl-3,4,5,6-tetrahydro-[1,1′-biphenyl]-2-carbonyl)hexahydropyrrolo[3,4-c]pyrrol-2(1H)-yl)methyl)-1-oxoisoindolin-2-yl)piperidine-2,6-dione] | 500 |
| CC1(C)CCC(C(=O)N2C3CCC2CN(c2ccc4c(c2)CN(C2CCC(=O)NC2=O)C4=O)C3)=C(c2ccc(F)cc2)C1 (centres unmarked) [GT-05491, 3-(5-(8-(4′-fluoro-5,5-dimethyl-3,4,5,6-tetrahydro-[1,1′-biphenyl]-2-carbonyl)-3,8-diazabicyclo[3.2.1]octan-3-yl)-1-oxoisoindolin-2-yl)piperidine-2,6-dione] | 970 |
| CC1(C)CCC(CN2C3CCC2CN(c2ccc4c(c2)CN(C2CCC(=O)NC2=O)C4=O)C3)=C(c2ccc(F)cc2)C1 (centres unmarked) [GT-05500, 3-(5-(8-((4′-fluoro-5,5-dimethyl-3,4,5,6-tetrahydro-[1,1′-biphenyl]-2-yl)methyl)-3,8-diazabicyclo[3.2.1]octan-3-yl)-1-oxoisoindolin-2-yl)piperidine-2,6-dione] | 1870 |
| O=C1CCC(N2Cc3c(ccc(CN4C5CC4CN(C(=O)C4=C(c6ccc(F)cc6)CCCC4)C5)c3F)C2=O)C(=O)N1 (centres unmarked) [GT-05475, 3-(4-fluoro-5-((3-(4′-fluoro-3,4,5,6-tetrahydro-[1,1′-biphenyl]-2-carbonyl)-3,6-diazabicyclo[3.1.1]heptan-6-yl)methyl)-1-oxoisoindolin-2-yl)piperidine-2,6-dione] | 910 |
| CC1(C)CCC(CN2C3CCC2CN(Cc2cc4c(cc2F)C(=O)N(C2CCC(=O)NC2=O)C4)C3)=C(c2ccc(Cl)cc2)C1 (centres unmarked) [GT-05535, 3-(5-((8-((4′-chloro-5,5-dimethyl-3,4,5,6-tetrahydro-[1,1′-biphenyl]-2-yl)methyl)-3,8-diazabicyclo[3.2.1]octan-3-yl)methyl)-6-fluoro-1-oxoisoindolin-2-yl)piperidine-2,6-dione] | 1790 |
| CC1(C)CCC(CN2CC3CC(C2)N3c2ccc3c(c2)C(=O)N(C2CCC(=O)NC2=O)C3=O)=C(c2ccc(F)cc2)C1 (centres unmarked) [GT-05386, 2-(2,6-dioxopiperidin-3-yl)-5-(3-((4′-fluoro-5,5-dimethyl-3,4,5,6-tetrahydro-[1,1′-biphenyl]-2-yl)methyl)-3,6-diazabicyclo[3.1.1]heptan-6-yl)isoindoline-1,3-dione] | 1460 |
| O=C1CCC(N2Cc3cc(CN4C5CC4CN(C(=O)c4ccccc4-c4ccc(Cl)cc4)C5)c(F)cc3C2=O)C(=O)N1 (centres unmarked) [GT-05667, 3-(5-((3-(4′-chloro-[1,1′-biphenyl]-2-carbonyl)-3,6-diazabicyclo[3.1.1]heptan-6-yl)methyl)-6-fluoro-1-oxoisoindolin-2-yl)piperidine-2,6-dione] | 750 |
| CC1(C)CCC(CN2CCN(C(=O)c3ccc4c(c3)CN(C3CCC(=O)NC3=O)C4=O)CC2)=C(c2ccc(F)cc2)C1 (centres unmarked) [GT-05614, 3-(5-(4-((4′-fluoro-5,5-dimethyl-3,4,5,6-tetrahydro-[1,1′-biphenyl]-2-yl)methyl)piperazine-1-carbonyl)-1-oxoisoindolin-2-yl)piperidine-2,6-dione] | 1410 |
| CC1(C)CCC(CN2CC3CN(C(=O)c4ccc5c(c4)CN(C4CCC(=O)NC4=O)C5=O)CC3C2)=C(c2ccc(F)cc2)C1 (centres unmarked) [GT-05447, 3-(5-(5-((4′-fluoro-5,5-dimethyl-3,4,5,6-tetrahydro-[1,1′-biphenyl]-2-yl)methyl)octahydropyrrolo[3,4-c]pyrrole-2-carbonyl)-1-oxoisoindolin-2-yl)piperidine-2,6-dione] | 1150 |
| O=C1CCC(N2Cc3cc(CN4CC5CCC4CN5Cc4ccccc4-c4ccc(Cl)cc4)ccc3C2=O)C(=O)N1 (centres unmarked) [GT-05619, 3-(5-((5-((4′-chloro-[1,1′-biphenyl]-2-yl)methyl)-2,5-diazabicyclo[2.2.2]octan-2-yl)methyl)-1-oxoisoindolin-2-yl)piperidine-2,6-dione] | 590 |
| O=C1CCC(N2Cc3cc(C(=O)N4CCN(CC5=C(c6ccc(F)cc6)CCCC5)CC4)ccc3C2=O)C(=O)N1 (centres unmarked) [GT-05863, 3-(5-(4-((4′-fluoro-3,4,5,6-tetrahydro-[1,1′-biphenyl]-2-yl)methyl)piperazine-1-carbonyl)-1-oxoisoindolin-2-yl)piperidine-2,6-dione] | 1020 |
| CC1(C)CCC(C(=O)N2C3CC2CN(Cc2ccc4c(c2)CN(C2CCC(=O)NC2=O)C4=O)C3)=C(c2ccc(Cl)cc2)C1 (centres unmarked) [GT-05660, 3-(5-((6-(4′-chloro-5,5-dimethyl-3,4,5,6-tetrahydro-[1,1′-biphenyl]-2-carbonyl)-3,6-diazabicyclo[3.1.1]heptan-3-yl)methyl)-1-oxoisoindolin-2-yl)piperidine-2,6-dione] | 1040 |
| CC1(C)CCC(CN2C3CC2CN(Cc2cc(F)c4c(c2)CN(C2CCC(=O)NC2=O)C4=O)C3)=C(c2ccc(Cl)cc2)C1 (centres unmarked) [GT-05531, 3-(5-((6-((4′-chloro-5,5-dimethyl-3,4,5,6-tetrahydro-[1,1′-biphenyl]-2-yl)methyl)-3,6-diazabicyclo[3.1.1]heptan-3-yl)methyl)-7-fluoro-1-oxoisoindolin-2-yl)piperidine-2,6-dione] | 800 |
